US7078556B2, “Antibiotics Cyan-416 A, Cyan-416 B, Cyan-416 C, Cyan-416 D and Cyan-416 E, and ester derivatives of Cyan-416 B” (Wyeth Holdings Corporation, priority 2002, dated 2006)
In brackets after ≈: the same amount, converted by molar mass. Like-named read-outs stand apart in the source and are kept apart here.

Columns and labels:
Assay in all cases: MIC by broth dilution
Assay type in all cases: cell-based
[1] = system: Staphylococcus aureus GC 2216
Method: (§1) The minimum inhibitory concentration (MIC), the lowest concentration of the antibiotic which inhibits growth of the test organism, is determined by the broth dilution method using Muller-Hinton II […] (Baltimore Biological Laboratories) following the recommendations of the National Committee for Clinical Laboratory Standards [Methods for dilution antimicrobial susceptibility tests for bacteria that grow aerobically. Approved standard M7-A2. National Committee for Clinical Laboratory Standards, Villanova, Pa].
(§2) An inoculum level of 5×10^5 CFU/ml, and a range of antibiotic concentrations (64–0.06 μg/ml) is used. The MIC is determined after the microtiter plates are incubated for 18 hours at 35° C. in an ambient air incubator. The test organisms comprise a spectrum of the Gram-positive bacteria Staphylococcus aureus, Streptococcus pneumoniae, and Enterococcus sp., the Gram-negative bacteria Escherichia coli, and the yeast Candida albicans. These organisms include recent clinical isolates that are resistant to methicillin and vancomycin. MIC data of Cyan-416 A–E are listed in Table 1 and MIC data of ester derivatives of Cyan-416 B (Formula I) are listed in Table 2.

[2] = system: Staphylococcus aureus GC 4541; settings: GC4541, Table 2, 18 hours at 35° C.
Method: as §1, §2

[3] = system: Enterococcus faecium GC 4556; settings: GC4556, Table 2, 18 hours at 35° C.
Method: as §1, §2

Escherichia coli GC 2203 = settings: GC2203, 18 h
Method: as §1, §2

[4] = system: Streptococcus pneumoniae GC 6242; settings: GC6242, Table 2, 18 hours at 35° C.
Method: as §1, §2

[5] = system: Enterococcus faecalis GC 842; settings: GC842, Table 1, 18 hours at 35° C.
Method: as §1, §2

[6] = system: Enterococcus faecium GC 2243; settings: GC2243, Table 2, 18 hours at 35° C.
Method: as §1, §2

Candida albicans GC 3066 = settings: GC3066, 18 h
Method: as §1, §2

[7] = system: Escherichia coli GC 4560 (imp)
Method: as §1, §2

[8] = system: Staphylococcus haemolyticus GC 4547; settings: GC4547, Table 2, 18 hours at 35° C.
Method: as §1, §2

[9] = system: Enterococcus faecalis GC 6189; settings: GC6189, Table 2, 18 hours at 35° C.
Method: as §1, §2

[10] = system: Enterococcus faecalis GC 4555
Method: as §1, §2

[11] = system: Streptococcus pneumoniae GC 1894; settings: GC1894, Table 2, 18 hours at 35° C.
Method: as §1, §2

[12] = system: Staphylococcus aureus GC 1131
Method: as §1, §2

[13] = system: Enterococcus faecium 4558; settings: Table 2, 18 hours at 35° C.
Method: as §1, §2

[14] = system: Enterococcus faecalis GC 2242
Method: as §1, §2

[15] = system: Staphylococcus aureus GC 4543; settings: GC4543, Table 2, 18 hours at 35° C.
Method: as §1, §2

[16] = system: Staphylococcus aureus GC 4536; settings: GC4536, Table 1, 18 hours at 35° C.
Method: as §1, §2

[17] = system: Pseudomonas aeruginosa GC 2214; settings: GC2214, Table 1, 18 hours at 35° C.
[18] = GC2216, Table 1, 18 hours at 35° C., read-out: MIC
[19] = Table 1, Escherichia coli GC 2203, 18 hours at 35° C.
[20] = Table 2, Escherichia coli coli GC 2203, 18 hours at 35° C.
[21] = GC4555, Table 1, 18 hours at 35° C., read-out: MIC
[22] = GC1131, Table 1, 18 hours at 35° C., read-out: MIC
[23] = GC2242, Table 1, 18 hours at 35° C., read-out: MIC
[24] = GC2216, Table 2, 18 hours at 35° C., read-out: MIC
[25] = GC4555, Table 2, 18 hours at 35° C., read-out: MIC
[26] = GC1131, Table 2, 18 hours at 35° C., read-out: MIC
[27] = GC2242, Table 2, 18 hours at 35° C., read-out: MIC

Row | SMILES | MIC [1, 18] | MIC [2] | MIC [3] | MIC (Escherichia coli GC 2203; [19]) | MIC (Escherichia coli GC 2203; [20]) | MIC [4] | MIC [5] | MIC [6] | MIC (Candida albicans GC 3066; Table 1, 18 hours at 35° C.) | MIC (Candida albicans GC 3066; Table 2, 18 hours at 35° C.) | MIC ([7]; Escherichia coli, 18 h) | MIC [8] | MIC [9] | MIC [10, 21] | MIC [11] | MIC [12, 22] | MIC [13] | MIC [14, 23] | MIC [15] | MIC [16] | other results
1 | COC(=O)c1c(O)ccc(O)c1C(=O)c1c(O)cc2c(c1O)[C@@H]1C=C[C@]3(C2)C(=C(O)c2c(O)cc(C)cc2[C@@H]3OC(C)=O)C1=O [Example 3a, Cyan-416 A] | 8 mg/L (≈ 13 µM) | 16 mg/L (≈ 26 µM) | 16 mg/L (≈ 26 µM) | > 64 mg/L | > 128 mg/L | 8 mg/L (≈ 13 µM) | 16 mg/L (≈ 26 µM) | 8 mg/L (≈ 13 µM) | > 64 mg/L | > 128 mg/L | 32 mg/L (≈ 52.1 µM) | 16 mg/L (≈ 26 µM) | 16 mg/L (≈ 26 µM) | 16 mg/L (≈ 26 µM) | 8 mg/L (≈ 13 µM) | 8 mg/L (≈ 13 µM) | 8 mg/L (≈ 13 µM) | 16 mg/L (≈ 26 µM) | 8 mg/L (≈ 13 µM) | 8 mg/L (≈ 13 µM) | MIC ([1]; Table 2, 18 hours at 35° C.): 8 mg/L (≈ 13 µM); MIC ([7]; Table 2, Escherichia coli GC 4560 (imp), 18 hours at 35° C.): 32 mg/L (≈ 52.1 µM); MIC ([10]; Table 2, 18 hours at 35° C.): 16 mg/L (≈ 26 µM); MIC ([12]; Table 2, 18 hours at 35° C.): 8 mg/L (≈ 13 µM); MIC ([14]; Table 2, 18 hours at 35° C.): 16 mg/L (≈ 26 µM); MIC [17]: > 64 mg/L
2 | COC(=O)c1c(O)ccc(O)c1C(=O)c1c(O)cc2c(c1O)[C@@H]1C=C[C@]3(C2)C(=C(O)c2c(O)cc(C)cc2[C@@H]3O)C1=O [Example 3b, Cyan-416 B] | 32 mg/L (≈ 55.9 µM) | – | – | > 64 mg/L | – | – | 64 mg/L (≈ 112 µM) | – | > 64 mg/L | – | 64 mg/L (≈ 112 µM) | – | – | 64 mg/L (≈ 112 µM) | – | 32 mg/L (≈ 55.9 µM) | – | 32 mg/L (≈ 55.9 µM) | – | 32 mg/L (≈ 55.9 µM) | MIC [17]: > 64 mg/L
3 | COC(=O)c1c(O)ccc(O)c1C(=O)c1c(O)cc2c(c1O)[C@@H]1C=C[C@@]3(C2)[C@@H](OC(C)=O)c2cc(C)cc(O)c2C(=O)C3(O)C1=O (stereo partly shown) [Example 3c, Cyan-416 C] | 32 mg/L (≈ 50.7 µM) | – | – | > 64 mg/L | – | – | 32 mg/L (≈ 50.7 µM) | – | > 64 mg/L | – | > 64 mg/L | – | – | 64 mg/L (≈ 101 µM) | – | 32 mg/L (≈ 50.7 µM) | – | 32 mg/L (≈ 50.7 µM) | – | 32 mg/L (≈ 50.7 µM) | MIC [17]: > 64 mg/L
4 | COC(=O)c1c(O)ccc(O)c1C(=O)c1c(O)cc(C)cc1O [Example 4a, Cyan-416 D] | 64 mg/L (≈ 201 µM) | – | – | > 64 mg/L | – | – | 64 mg/L (≈ 201 µM) | – | > 64 mg/L | – | 64 mg/L (≈ 201 µM) | – | – | 64 mg/L (≈ 201 µM) | – | 64 mg/L (≈ 201 µM) | – | 32 mg/L (≈ 101 µM) | – | 64 mg/L (≈ 201 µM) | MIC [17]: > 64 mg/L
5 | COC(=O)c1c(O)ccc(O)c1C(=O)c1c(O)cc(C)c(Cc2c(C)cc(O)c(C(=O)c3c(O)ccc(O)c3C(=O)OC)c2O)c1O [Example 4b, Cyan-416 E] | 64 mg/L (≈ 98.7 µM) | – | – | > 64 mg/L | – | – | 64 mg/L (≈ 98.7 µM) | – | 64 mg/L (≈ 98.7 µM) | – | 64 mg/L (≈ 98.7 µM) | – | – | 64 mg/L (≈ 98.7 µM) | – | 64 mg/L (≈ 98.7 µM) | – | 64 mg/L (≈ 98.7 µM) | – | 64 mg/L (≈ 98.7 µM) | MIC [17]: 64 mg/L (≈ 98.7 µM)
6 | CCCC(=O)O[C@H]1c2cc(C)cc(O)c2C(O)=C2C(=O)[C@H]3C=C[C@]21Cc1cc(O)c(C(=O)c2c(O)ccc(O)c2C(=O)OC)c(O)c13 [Example 6, Cyan-416 B butyrate] | – | 8 mg/L (≈ 12.4 µM) | 8 mg/L (≈ 12.4 µM) | – | > 128 mg/L | 32 mg/L (≈ 49.8 µM) | – | 16 mg/L (≈ 24.9 µM) | – | > 128 mg/L | 16 mg/L (≈ 24.9 µM) | 16 mg/L (≈ 24.9 µM) | 16 mg/L (≈ 24.9 µM) | – | 16 mg/L (≈ 24.9 µM) | – | 8 mg/L (≈ 12.4 µM) | – | 8 mg/L (≈ 12.4 µM) | – | MIC [1, 24]: 8 mg/L (≈ 12.4 µM); MIC [10, 25]: 16 mg/L (≈ 24.9 µM); MIC [12, 26]: 8 mg/L (≈ 12.4 µM); MIC [14, 27]: 8 mg/L (≈ 12.4 µM)
7 | COC(=O)c1c(O)ccc(O)c1C(=O)c1c(O)cc2c(c1O)[C@@H]1C=C[C@]3(C2)C(=C(O)c2c(O)cc(C)cc2[C@@H]3OC(=O)C(C)C)C1=O [Example 7, Cyan-416 B isobutyrate] | – | 2 mg/L (≈ 3.11 µM) | 4 mg/L (≈ 6.22 µM) | – | > 128 mg/L | 16 mg/L (≈ 24.9 µM) | – | 8 mg/L (≈ 12.4 µM) | – | > 128 mg/L | 8 mg/L (≈ 12.4 µM) | 4 mg/L (≈ 6.22 µM) | 4 mg/L (≈ 6.22 µM) | – | 8 mg/L (≈ 12.4 µM) | – | 2 mg/L (≈ 3.11 µM) | – | 4 mg/L (≈ 6.22 µM) | – | MIC [1, 24]: 4 mg/L (≈ 6.22 µM); MIC [10, 25]: 4 mg/L (≈ 6.22 µM); MIC [12, 26]: 4 mg/L (≈ 6.22 µM); MIC [14, 27]: 4 mg/L (≈ 6.22 µM)
8 | CCCCC(=O)O[C@H]1c2cc(C)cc(O)c2C(O)=C2C(=O)[C@H]3C=C[C@]21Cc1cc(O)c(C(=O)c2c(O)ccc(O)c2C(=O)OC)c(O)c13 [Example 8, Cyan-416 B pentanoate] | – | 4 mg/L (≈ 6.09 µM) | 4 mg/L (≈ 6.09 µM) | – | > 128 mg/L | 8 mg/L (≈ 12.2 µM) | – | 4 mg/L (≈ 6.09 µM) | – | > 128 mg/L | 8 mg/L (≈ 12.2 µM) | 4 mg/L (≈ 6.09 µM) | 4 mg/L (≈ 6.09 µM) | – | 8 mg/L (≈ 12.2 µM) | – | 2 mg/L (≈ 3.05 µM) | – | 4 mg/L (≈ 6.09 µM) | – | MIC [1, 24]: 4 mg/L (≈ 6.09 µM); MIC [10, 25]: 4 mg/L (≈ 6.09 µM); MIC [12, 26]: 4 mg/L (≈ 6.09 µM); MIC [14, 27]: 4 mg/L (≈ 6.09 µM)
9 | CCCCCC(=O)O[C@H]1c2cc(C)cc(O)c2C(O)=C2C(=O)[C@H]3C=C[C@]21Cc1cc(O)c(C(=O)c2c(O)ccc(O)c2C(=O)OC)c(O)c13 [Example 9, Cyan-416 B hexanoate] | – | 4 mg/L (≈ 5.96 µM) | 4 mg/L (≈ 5.96 µM) | – | > 128 mg/L | 8 mg/L (≈ 11.9 µM) | – | 4 mg/L (≈ 5.96 µM) | – | > 128 mg/L | 8 mg/L (≈ 11.9 µM) | 4 mg/L (≈ 5.96 µM) | 4 mg/L (≈ 5.96 µM) | – | 8 mg/L (≈ 11.9 µM) | – | 2 mg/L (≈ 2.98 µM) | – | 4 mg/L (≈ 5.96 µM) | – | MIC [1, 24]: 4 mg/L (≈ 5.96 µM); MIC [10, 25]: 4 mg/L (≈ 5.96 µM); MIC [12, 26]: 4 mg/L (≈ 5.96 µM); MIC [14, 27]: 4 mg/L (≈ 5.96 µM)
